Where “and” joins values, the source holds several entries; their conditions need not be identical. Equal values may be shown once.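 Each compound was tested at five concentrations against cells in 96-well plates for 48 hours. GI50 marks 50% less growth. TGI: concentration producing complete growth inhibition.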
Experiments:
Assay in all cases: inhibition of tumour cell growth, NCI panel, 48 h
T-47D breast = system: T-47D breast
NCI-H460 lung = system: NCI-H460 lung
SW-620 colon = system: SW-620 colon
OVCAR-5 ovarian = system: OVCAR-5 ovarian
MOLT-4 leukemia = system: MOLT-4 leukemia
U251 CNS = system: U251 CNS
OVCAR-8 ovarian = system: OVCAR-8 ovarian
NCI-H522 lung = system: NCI-H522 lung
786-0 renal = system: 786-0 renal
M14 melanoma = system: M14 melanoma

SMILES	GI50 (T-47D breast)	TGI (T-47D breast)	GI50 (NCI-H460 lung)	TGI (NCI-H460 lung)	GI50 (SW-620 colon)	TGI (SW-620 colon)	GI50 (OVCAR-5 ovarian)	TGI (OVCAR-5 ovarian)	GI50 (MOLT-4 leukemia)	TGI (MOLT-4 leukemia)	GI50 (U251 CNS)	TGI (U251 CNS)	GI50 (OVCAR-8 ovarian)	TGI (OVCAR-8 ovarian)	GI50 (NCI-H522 lung)	TGI (NCI-H522 lung)	GI50 (786-0 renal)	TGI (786-0 renal)	GI50 (M14 melanoma)	TGI (M14 melanoma)
C=CCN(CC=C)Cc1c[nH]c2ccccc12	> 100 µM	> 100 µM	21.8 µM	62.3 µM	26300 nM	> 100 µM	17 µM	34.6 µM	72.7 µM	> 100 µM	13.2 µM	31.2 µM	11.9 µM	69 µM	14.9 µM	33.8 µM	4.33 µM	14.7 µM	–	–
CC(=O)O[C@H]1C[C@@H]2[C@@]3(C)CC[C@H]4C[C@@]4(C)[C@@H]3CC[C@@]2(C)C2=CCC3=C(COC3=O)[C@]21C	20.7 µM	54.7 µM	29.9 µM	> 100 µM	19400 nM	43.6 µM	19.3 µM	39.5 µM	33.5 µM	> 100 µM	17.4 µM	36.3 µM	19.9 µM	65 µM	24.5 µM	84.1 µM	18.6 µM	37.7 µM	22.6 µM	47.3 µM
O=C1NC(=O)C2C3C=CC(C12)C1C2C(=O)NC(=O)C2C31 (centres undefined)	480 µM	> 1000 µM	47 µM and 74.4 µM	203 µM and > 1000 µM	–	> 67.4 µM and 203 µM and > 1000 µM	> 1000 µM	> 1000 µM	160 µM	201 µM and 850 µM	–	244 µM and > 1000 µM	880 µM	206 µM and > 1000 µM	261 µM	235 µM and 864 µM	> 250 µM	> 1000 µM	> 973 µM	250 µM and > 1000 µM
CCCCCCCCCCCCOC1C(C(COC2OC(C(O)CO)C3OC(C)(C)OC23)OC(=O)Nc2ccccc2)OC2OC(C)(C)OC21 (centres undefined)	5.02 µM	16.6 µM	3.88 µM	13.3 µM	9210 nM	27.2 µM	4.84 µM	16.3 µM	0.127 µM	5.14 µM	5.44 µM	18 µM	8.24 µM	26.2 µM	9.89 µM	29.2 µM	5.84 µM	17.2 µM	5.12 µM	17 µM
O=[N+]([O-])c1ccc(/C=C(/c2ccc([N+](=O)[O-])o2)S(=O)(=O)c2ccccc2)cc1	–	> 100 µM	–	> 100 µM	–	> 100 µM	–	> 100 µM	–	37.5 µM	–	> 100 µM	–	> 100 µM	–	> 100 µM	–	> 100 µM	–	> 100 µM
CCOC(=O)C#Cc1c(C(=O)OCC)nnn1[C@@H]1O[C@H](COC)[C@@H](OC)[C@H]1OC	2.47 µM	7.39 µM	17.8 µM	36.2 µM	1990 nM	4.06 µM	16.2 µM	32.7 µM	1.92 µM	4.39 µM	17 µM	31.3 µM	6.94 µM	21.7 µM	1.97 µM	3.9 µM	13.3 µM	26.7 µM	3.27 µM	10.8 µM
CN(C)CCCC1(c2ccc(F)cc2)OCc2cc(-c3csc4ccccc34)ccc21 (centres undefined)	1.71 µM	3.7 µM	1.6 µM	3.18 µM	1630 nM	3.22 µM	1.55 µM	2.95 µM	1.79 µM	3.52 µM	1.69 µM	3.39 µM	1.87 µM	3.84 µM	1.65 µM	3.48 µM	1.84 µM	3.63 µM	1.66 µM	3.36 µM
N#C[Se]CCN1C(=O)c2ccccc2C1=O	3.45 µM	20.2 µM	2.25 µM	11.4 µM	2380 nM	5.66 µM	2.24 µM	9.38 µM	2.01 µM	23.9 µM	2.63 µM	8.71 µM	2.66 µM	8.26 µM	4.72 µM	21.9 µM	2.1 µM	5.09 µM	1.21 µM	3.8 µM
N=C(N)SCc1ccc(Cl)c2ccccc12 (tested in a mixture with another compound)	–	18.3 µM and 21.7 µM	–	22.4 µM and 21 µM	–	28.5 µM and 27.6 µM	–	26.8 µM and 27.6 µM	–	17.3 µM and 4.25 µM	–	25.7 µM and 23.6 µM	–	50.1 µM and > 77.8 µM	–	18.7 µM and 23.9 µM	–	23.9 µM and 27.2 µM	–	23.8 µM and 26.5 µM
C#CCCCCCC(=O)N[C@H]1C=C[C@@H]2/C=C(C)/C=C/[C@@H](C)[C@H]([C@H](C)[C@H](O)[C@@H](C)NC(C)=O)OC(=O)/C=C/C=C(C)\C=C\[C@]2(C)C1	< 0.004 µM	13.6 µM	< 0.004 µM	> 40 µM	< 4 nM	> 40 µM	6.53 µM	> 40 µM	6.79 µM	> 40 µM	< 0.004 µM	> 40 µM	< 0.004 µM	> 40 µM	0.0091 µM	14.2 µM	< 0.004 µM	> 40 µM	–	–
